Among the data in paper PMC9997933, “Anticancer derivative of the natural alkaloid, theobromine, inhibiting EGFR protein: Computer-aided drug discovery approach” (PLOS ONE, 2023) are IC50 values, retold here.

The test concerns the target EGFR (Homo sapiens, UniProt P00533). As to the kind of experiment: in vitro EGFR inhibition, Human EGFR ELISA kit. It counts as biochemical.

Sequence of EGFR (P00533 25-1210): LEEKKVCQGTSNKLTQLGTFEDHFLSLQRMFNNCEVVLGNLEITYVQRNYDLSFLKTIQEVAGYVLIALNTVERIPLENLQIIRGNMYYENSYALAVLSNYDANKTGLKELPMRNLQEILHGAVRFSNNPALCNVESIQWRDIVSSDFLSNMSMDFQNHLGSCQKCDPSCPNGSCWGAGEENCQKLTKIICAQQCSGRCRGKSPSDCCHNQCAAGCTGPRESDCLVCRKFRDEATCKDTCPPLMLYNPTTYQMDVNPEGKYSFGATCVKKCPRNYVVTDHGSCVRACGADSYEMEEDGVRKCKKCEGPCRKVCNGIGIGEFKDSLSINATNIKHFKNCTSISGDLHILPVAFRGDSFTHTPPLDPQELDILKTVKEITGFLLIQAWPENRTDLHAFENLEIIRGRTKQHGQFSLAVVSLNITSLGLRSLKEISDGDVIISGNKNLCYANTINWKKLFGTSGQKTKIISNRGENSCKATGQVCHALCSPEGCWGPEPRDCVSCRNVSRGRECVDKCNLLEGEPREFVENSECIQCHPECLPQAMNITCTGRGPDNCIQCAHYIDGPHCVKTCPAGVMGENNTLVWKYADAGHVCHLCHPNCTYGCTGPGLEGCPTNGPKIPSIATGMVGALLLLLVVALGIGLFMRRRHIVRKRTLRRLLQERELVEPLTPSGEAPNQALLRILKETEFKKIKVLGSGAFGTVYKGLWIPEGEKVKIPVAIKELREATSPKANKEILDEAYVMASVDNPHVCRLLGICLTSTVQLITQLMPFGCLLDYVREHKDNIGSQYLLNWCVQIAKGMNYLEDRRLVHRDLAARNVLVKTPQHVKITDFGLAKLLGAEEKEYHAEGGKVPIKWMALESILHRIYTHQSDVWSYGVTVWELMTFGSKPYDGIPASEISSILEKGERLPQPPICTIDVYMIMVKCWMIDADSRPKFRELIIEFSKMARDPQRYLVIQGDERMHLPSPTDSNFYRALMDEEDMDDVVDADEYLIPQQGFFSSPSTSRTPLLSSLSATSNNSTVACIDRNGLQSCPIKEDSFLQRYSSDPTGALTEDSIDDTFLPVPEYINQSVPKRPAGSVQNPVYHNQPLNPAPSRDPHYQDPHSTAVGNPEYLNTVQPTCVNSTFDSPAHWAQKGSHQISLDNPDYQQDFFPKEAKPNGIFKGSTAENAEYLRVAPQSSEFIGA

Compound `Cc1cccc(NC(=O)Cn2c(=O)c3c(ncn3C)n(C)c2=O)c1` [T-1-MTA] displayed an IC50 of 22.9 nM.
